Assay: xn = mol fraction of the nth substance listed
Conditions: 101 kPa, Liquid, Vibrating tube method

CCCC(=O)OCC [ethyl butanoate] + CCCCCCC
Conditions | mass density [kg/m3]
288.15 K, x1 = 0.0502 | 696.39
288.15 K, x1 = 0.0918 | 703.35
288.15 K, x1 = 0.1473 | 712.8
288.15 K, x1 = 0.2022 | 722.42
288.15 K, x1 = 0.2465 | 730.35
288.15 K, x1 = 0.288 | 737.84
288.15 K, x1 = 0.3987 | 758.41
288.15 K, x1 = 0.4488 | 767.94
288.15 K, x1 = 0.5008 | 778.03
288.15 K, x1 = 0.5456 | 786.84
288.15 K, x1 = 0.6023 | 798.22
288.15 K, x1 = 0.6584 | 809.63
288.15 K, x1 = 0.6999 | 818.26
288.15 K, x1 = 0.7486 | 828.54
288.15 K, x1 = 0.8042 | 840.42
288.15 K, x1 = 0.8481 | 850.01
288.15 K, x1 = 0.901 | 861.58
288.15 K, x1 = 0.9347 | 869.11
288.15 K, x1 = 0.9527 | 873.2
288.15 K, x1 = 1 | 884.01
298.15 K, x1 = 0.0522 | 688.18
298.15 K, x1 = 0.0904 | 694.54
298.15 K, x1 = 0.1404 | 703.05
298.15 K, x1 = 0.1901 | 711.58
298.15 K, x1 = 0.2539 | 722.68
298.15 K, x1 = 0.2962 | 730.22
298.15 K, x1 = 0.3543 | 740.87
298.15 K, x1 = 0.4 | 749.31
298.15 K, x1 = 0.443 | 757.44
298.15 K, x1 = 0.5517 | 778.51
298.15 K, x1 = 0.6018 | 788.45
298.15 K, x1 = 0.648 | 797.84
298.15 K, x1 = 0.6976 | 808.02
298.15 K, x1 = 0.7463 | 818.17
298.15 K, x1 = 0.7884 | 827.06
298.15 K, x1 = 0.8473 | 839.64
298.15 K, x1 = 0.9054 | 852.26
298.15 K, x1 = 0.9524 | 862.74
298.15 K, x1 = 1 | 873.5
308.15 K, x1 = 0.0461 | 678.42
308.15 K, x1 = 0.0952 | 686.44
308.15 K, x1 = 0.1445 | 694.69
308.15 K, x1 = 0.2034 | 704.7
308.15 K, x1 = 0.2497 | 712.78
308.15 K, x1 = 0.3081 | 723.17
308.15 K, x1 = 0.3441 | 729.57
308.15 K, x1 = 0.406 | 741.01
308.15 K, x1 = 0.4563 | 750.35
308.15 K, x1 = 0.5053 | 759.76
308.15 K, x1 = 0.5505 | 768.46
308.15 K, x1 = 0.6038 | 778.99
308.15 K, x1 = 0.6498 | 788.17
308.15 K, x1 = 0.7026 | 798.87
308.15 K, x1 = 0.7544 | 809.6
308.15 K, x1 = 0.788 | 816.69
308.15 K, x1 = 0.8424 | 828.13
308.15 K, x1 = 0.9009 | 840.82
308.15 K, x1 = 0.9512 | 851.86
308.15 K, x1 = 1 | 862.85
318.15 K, x1 = 0.0532 | 670.78
318.15 K, x1 = 0.095 | 677.56
318.15 K, x1 = 0.1397 | 684.91
318.15 K, x1 = 0.2087 | 696.59
318.15 K, x1 = 0.2565 | 704.87
318.15 K, x1 = 0.3048 | 713.3
318.15 K, x1 = 0.3608 | 723.3
318.15 K, x1 = 0.4046 | 731.26
318.15 K, x1 = 0.4532 | 740.3
318.15 K, x1 = 0.5065 | 750.34
318.15 K, x1 = 0.5517 | 759.04
318.15 K, x1 = 0.6007 | 768.46
318.15 K, x1 = 0.6492 | 778.12
318.15 K, x1 = 0.6934 | 787.02
318.15 K, x1 = 0.739 | 796.28
318.15 K, x1 = 0.7947 | 807.72
318.15 K, x1 = 0.8554 | 820.65
318.15 K, x1 = 0.8861 | 827.23
318.15 K, x1 = 0.9515 | 841.48
318.15 K, x1 = 1 | 852.26
328.15 K, x1 = 0.0535 | 662.06
328.15 K, x1 = 0.0975 | 669.12
328.15 K, x1 = 0.1485 | 677.41
328.15 K, x1 = 0.1785 | 682.4
328.15 K, x1 = 0.2367 | 692.21
328.15 K, x1 = 0.3034 | 703.69
328.15 K, x1 = 0.359 | 713.56
328.15 K, x1 = 0.4538 | 730.76
328.15 K, x1 = 0.5087 | 741
328.15 K, x1 = 0.5511 | 749.04
328.15 K, x1 = 0.6093 | 760.27
328.15 K, x1 = 0.6471 | 767.65
328.15 K, x1 = 0.6967 | 777.52
328.15 K, x1 = 0.739 | 786.07
328.15 K, x1 = 0.7999 | 798.54
328.15 K, x1 = 0.8397 | 806.83
328.15 K, x1 = 0.9086 | 821.54
328.15 K, x1 = 0.9533 | 831.27
328.15 K, x1 = 1 | 841.55

Reference: the NIST ThermoML archive (doi:10.1021/je300799f)
